Experimental data from ChEMBL document CHEMBL1133274 (Bioorg Med Chem Lett, 2000).
pIC50: −log10 of the molar value.

Assays:
[1] = species on record: Homo sapiens; assay: Cytotoxicity of compound was determined against Lo Vo colon cancer cells; format: functional, cell-based; conditions: Cancer cell lines
[2] = species on record: Homo sapiens; assay: Cytotoxicity of compound was determined against Lo Vo colon cancer cells in presence of GUS from Escherichia coli; format: functional, cell-based; conditions: Cancer cell lines

O=C(O)[C@@H]1O[C@@H](Oc2ccc(COC(=O)N(CCCl)CCCl)cc2[N+](=O)[O-])[C@@H](O)[C@@H](O)[C@@H]1O
pIC50 [1]: < 3.40 | pIC50 [2]: 4.02
